From patent US8445492B2, “Method for inhibiting growth of cancer cells and cell telomere and diseases of cell proliferation by using heteroannelated anthraquinone derivative compounds” (National Defense Medical Center, priority 2008, dated 2013)

Assays:
Assay type in all cases: cell-based
[1] = tested on: MOLT-4; assay: in vitro test at 1.0×10^−5 M, Blood cancer cell; settings: 1.0×10^−5 molal concentration (M)
[2] = tested on: MDA-MB-435; assay: in vitro test at 1.0×10^−5 M, Breast cancer cell; settings: 1.0×10^−5 molal concentration (M)
[3] = tested on: ACHN; assay: in vitro test at 1.0×10^−5 M, Kidney cancer cell; settings: 1.0×10^−5 molal concentration (M)
[4] = tested on: MCF7; assay: in vitro test at 1.0×10^−5 M, Breast cancer cell; settings: 1.0×10^−5 molal concentration (M)
[5] = tested on: SF-539; assay: in vitro test at 1.0×10^−5 M, CNS cancer cell; settings: 1.0×10^−5 molal concentration (M)
[6] = tested on: MALME-3M; assay: in vitro test at 1.0×10^−5 M, Skin cancer cell; settings: 1.0×10^−5 molal concentration (M)
[7] = tested on: UO-31; assay: NCI DTP in-vitro dose response, Renal Cancer
[8] = tested on: MDA-MB-468; assay: NCI DTP in-vitro dose response, Breast Cancer
[9] = tested on: SF-539; assay: NCI DTP in-vitro dose response, CNS Cancer
[10] = tested on: HCC-2998; assay: NCI DTP in-vitro dose response, Colon Cancer
[11] = tested on: UACC-62; assay: NCI DTP in-vitro dose response, Melanoma
[12] = tested on: SK-MEL-5; assay: NCI DTP in-vitro dose response, Melanoma
[13] = tested on: M14; assay: NCI DTP in-vitro dose response, Melanoma
[14] = tested on: CAKI-1; assay: NCI DTP in-vitro dose response, Renal Cancer
[15] = tested on: HS 578T; assay: NCI DTP in-vitro dose response, Breast Cancer
[16] = tested on: OVCAR-5; assay: NCI DTP in-vitro dose response, Ovarian Cancer
[17] = tested on: MCF7; assay: NCI DTP in-vitro dose response, Breast Cancer
[18] = tested on: HCT-15; assay: NCI DTP in-vitro dose response, Colon Cancer
[19] = tested on: U251; assay: NCI DTP in-vitro dose response, CNS Cancer
[20] = tested on: SN12C; assay: NCI DTP in-vitro dose response, Renal Cancer
[21] = tested on: 786-0; assay: NCI DTP in-vitro dose response, Renal Cancer

Compound: CCc1nc2ccc3c(c2[nH]1)C(=O)c1ccccc1C3=O [No. 4, 2-Ethyl-1(3)H-anthra[1,2-d]imidazole-6,11-dione]
- inhibition effect on cancer cell line (Table 2 value) [1]: 64.17
- inhibition effect on cancer cell line (Table 2 value) [2]: 84.39
- inhibition effect on cancer cell line (Table 2 value) [3]: 24.97
- inhibition effect on cancer cell line (Table 2 value) [4]: 69.82
- inhibition effect on cancer cell line (Table 2 value) [5]: 83.16
- inhibition effect on cancer cell line (Table 2 value) [6]: 56.94

Compound: O=C1c2ccccc2C(=O)c2c1ccc1nsnc21 [No. 22, Anthra[2,1-c][1,2,5]thiadiazole-6,11-dione]
- GI50 ([7]; Homo sapiens, UO-31): 1.95 µM
- CC50 ([7]; Homo sapiens, UO-31, read-out: LC50): 7.41 µM
- Percent Growth ([7]; Log10 Concentration −4.0): −66%
- Percent Growth ([7]; Log10 Concentration −5.0): −72%
- Percent Growth ([7]; Log10 Concentration −6.0): 100%
- Percent Growth ([7]; Log10 Concentration −7.0): 118%
- Percent Growth ([7]; Log10 Concentration −8.0): 111%
- TGI ([7]; UO-31): 3.81E−6
- GI50 ([8]; Homo sapiens, MDA-MB-468): 1.83 µM
- CC50 ([8]; Homo sapiens, MDA-MB-468, read-out: LC50): 5.72 µM
- Percent Growth ([8]; Log10 Concentration −4.0): −99%
- Percent Growth ([8]; Log10 Concentration −5.0): −99%
- Percent Growth ([8]; Log10 Concentration −6.0): 103%
- Percent Growth ([8]; Log10 Concentration −7.0): 101%
- Percent Growth ([8]; Log10 Concentration −8.0): 97%
- TGI ([8]; MDA-MB-468): 3.24E−6
- GI50 ([9]; Homo sapiens, SF-539): 1.52 µM
- CC50 ([9]; Homo sapiens, SF-539, read-out: LC50): 5.38 µM
- Percent Growth ([9]; Log10 Concentration −4.0): −98%
- Percent Growth ([9]; Log10 Concentration −5.0): −99%
- Percent Growth ([9]; Log10 Concentration −6.0): 83%
- Percent Growth ([9]; Log10 Concentration −7.0): 84%
- Percent Growth ([9]; Log10 Concentration −8.0): 90%
- TGI ([9]; SF-539): 2.86E−6
- TGI ([10]; HCC-2998): 4.20E−6
- GI50 ([10]; Homo sapiens, HCC 2998): 2.12 µM
- CC50 ([10]; Homo sapiens, HCC 2998, read-out: LC50): 8.32 µM
- Percent Growth ([10]; Log10 Concentration −4.0): −70%
- Percent Growth ([10]; Log10 Concentration −5.0): −63%
- Percent Growth ([10]; Log10 Concentration −6.0): 105%
- Percent Growth ([10]; Log10 Concentration −7.0): 103%
- Percent Growth ([10]; Log10 Concentration −8.0): 109%
- GI50 ([11]; Homo sapiens, UACC-62): 2.31 µM
- CC50 ([11]; Homo sapiens, UACC-62, read-out: LC50): 96.2 µM
- Percent Growth ([11]; Log10 Concentration −4.0): −50%
- Percent Growth ([11]; Log10 Concentration −5.0): −23%
- Percent Growth ([11]; Log10 Concentration −6.0): 92%
- Percent Growth ([11]; Log10 Concentration −7.0): 91%
- Percent Growth ([11]; Log10 Concentration −8.0): 89%
- TGI ([11]; UACC-62): 6.29E−6
- GI50 ([12]; Homo sapiens, SK-MEL-5): 1.13 µM
- CC50 ([12]; Homo sapiens, SK-MEL-5, read-out: LC50): 4.83 µM
- Percent Growth ([12]; Log10 Concentration −4.0): −100%
- Percent Growth ([12]; Log10 Concentration −5.0): −100%
- Percent Growth ([12]; Log10 Concentration −6.0): 58%
- Percent Growth ([12]; Log10 Concentration −7.0): 85%
- Percent Growth ([12]; Log10 Concentration −8.0): 98%
- TGI ([12]; SK-MEL-5): 2.34E−6
- GI50 ([13]; Homo sapiens, M14): 2.44 µM
- CC50 ([13]; Homo sapiens, M14, read-out: LC50): > 100 µM
- Percent Growth ([13]; Log10 Concentration −4.0): −41%
- Percent Growth ([13]; Log10 Concentration −5.0): −32%
- Percent Growth ([13]; Log10 Concentration −6.0): 102%
- Percent Growth ([13]; Log10 Concentration −7.0): 100%
- Percent Growth ([13]; Log10 Concentration −8.0): 100%
- TGI ([13]; M14): 5.78E−6
- TGI ([14]; CAKI-1): 6.16E−6
- GI50 ([14]; Homo sapiens, CAKI-1): 2.18 µM
- CC50 ([14]; Homo sapiens, CAKI-1, read-out: LC50): 41.5 µM
- Percent Growth ([14]; Log10 Concentration −4.0): −66%
- Percent Growth ([14]; Log10 Concentration −5.0): −23%
- Percent Growth ([14]; Log10 Concentration −6.0): 88%
- Percent Growth ([14]; Log10 Concentration −7.0): 95%
- Percent Growth ([14]; Log10 Concentration −8.0): 90%
- TGI ([15]; HS 578T): >1.00E−4
- GI50 ([15]; Homo sapiens, Hs-578T): 5.03 µM
- CC50 ([15]; Homo sapiens, Hs-578T, read-out: LC50): > 100 µM
- Percent Growth ([15]; Log10 Concentration −4.0): 21%
- Percent Growth ([15]; Log10 Concentration −5.0): 29%
- Percent Growth ([15]; Log10 Concentration −6.0): 100%
- Percent Growth ([15]; Log10 Concentration −7.0): 114%
- Percent Growth ([15]; Log10 Concentration −8.0): 109%
- GI50 ([16]; Homo sapiens, OVCAR-5): 2.18 µM
- CC50 ([16]; Homo sapiens, OVCAR-5, read-out: LC50): 9.06 µM
- Percent Growth ([16]; Log10 Concentration −4.0): −58%
- Percent Growth ([16]; Log10 Concentration −5.0): −57%
- Percent Growth ([16]; Log10 Concentration −6.0): 105%
- Percent Growth ([16]; Log10 Concentration −7.0): 94%
- Percent Growth ([16]; Log10 Concentration −8.0): 99%
- TGI ([16]; OVCAR-5): 4.44E−6
- GI50 ([17]; Homo sapiens, MCF7): 1.24 µM
- CC50 ([17]; Homo sapiens, MCF7, read-out: LC50): 7.72 µM
- Percent Growth ([17]; Log10 Concentration −4.0): −63%
- Percent Growth ([17]; Log10 Concentration −5.0): −64%
- Percent Growth ([17]; Log10 Concentration −6.0): 62%
- Percent Growth ([17]; Log10 Concentration −7.0): 77%
- Percent Growth ([17]; Log10 Concentration −8.0): 88%
- TGI ([17]; MCF7): 3.10E−6
- TGI ([18]; HCT-15): 7.80E−6
- GI50 ([18]; Homo sapiens, HCT-15): 2.49 µM
- CC50 ([18]; Homo sapiens, HCT-15, read-out: LC50): 90.6 µM
- Percent Growth ([18]; Log10 Concentration −4.0): −52%
- Percent Growth ([18]; Log10 Concentration −5.0): −11%
- Percent Growth ([18]; Log10 Concentration −6.0): 90%
- Percent Growth ([18]; Log10 Concentration −7.0): 104%
- Percent Growth ([18]; Log10 Concentration −8.0): 110%
- GI50 ([19]; Homo sapiens, U-251): 1.6 µM
- CC50 ([19]; Homo sapiens, U-251, read-out: LC50): 8.32 µM
- Percent Growth ([19]; Log10 Concentration −4.0): −63%
- Percent Growth ([19]; Log10 Concentration −5.0): −61%
- Percent Growth ([19]; Log10 Concentration −6.0): 78%
- Percent Growth ([19]; Log10 Concentration −7.0): 104%
- Percent Growth ([19]; Log10 Concentration −8.0): 106%
- TGI ([19]; U251): 3.65E−6
- GI50 ([20]; Homo sapiens, SN12C): 2.35 µM
- CC50 ([20]; Homo sapiens, SN12C, read-out: LC50): > 100 µM
- Percent Growth ([20]; Log10 Concentration −4.0): −35%
- Percent Growth ([20]; Log10 Concentration −5.0): −7%
- Percent Growth ([20]; Log10 Concentration −6.0): 83%
- Percent Growth ([20]; Log10 Concentration −7.0): 103%
- Percent Growth ([20]; Log10 Concentration −8.0): 91%
- TGI ([20]; SN12C): 8.42E−6
- TGI ([21]; 786-0): 1.16E−5
- GI50 ([21]; Homo sapiens, 786-0): 3.93 µM
- CC50 ([21]; Homo sapiens, 786-0, read-out: LC50): 52.7 µM
- Percent Growth ([21]; Log10 Concentration −4.0): −71%
- Percent Growth ([21]; Log10 Concentration −5.0): 5%
- Percent Growth ([21]; Log10 Concentration −6.0): 116%
- Percent Growth ([21]; Log10 Concentration −7.0): 106%
- Percent Growth ([21]; Log10 Concentration −8.0): 105%
